What all share (assay): CDK enzymology experiment in vitro, capillary mobility shift assay (MSA)
Assay type in all cases: biochemical

One test addresses T1, CDK6 (Homo sapiens, UniProt Q00534).
T1 construct: purchased Carna Company
Particulars: read-out: CDK6 (nM) inhibitory IC50. The method, then:
(§1) CDK1/CDK2/CDK4/CDK6/CDK7/CDK9 were purchased from Carna Company; Carliper substrate CTD3/substrate 18/substrate 8 were purchased from Gil Biochemical Company; Dinaciclib/Palbociclib were purchased from Selleckchem Company; DMSO was purchased from Sigma Company; 384-well plates were purchased from Corning Company.
• (1) Preparation of 1×Kinase buffer. • (2) Preparation of compound concentration gradient: Test concentration of the test compound was started at 1 μM, 10 μM or 30 μM, 3-fold dilution, 10 concentrations, detected in duplicate. […] Liquid handler Echo 550 was used to transfer 250 nL of 100-fold final concentration of the compound to the target plate 384-well plate. […] The 384-well plate was centrifuged at 1000 rpm for 30 seconds, and shaken to mix uniformly. • (10) The conversion rate was read with Caliper EZ Reader.
(§2) Where, conversion %_sample is the readings of conversion rate of the sample; conversion %_min: the average value of negative control wells, representing the readings of conversion rate of wells without enzyme activity; conversion %_max: the average value of positive control wells, representing the readings of conversion rate of wells without compound inhibition.
(§3) Taking the log value of the concentration as the X-axis, and the percentage inhibition rate as the Y-axis, the dose-effect curve was fitted using the log(inhibitor) vs. response—Variable slope of the analysis software GraphPad Prism 5 so as to obtain the IC50 value of each compound on the enzyme activity.
(§4) Y=Bottom+(Top−Bottom)/(1+10^((Log IC50−X)*HillSlope)). Calculation formula: […]

Another test deals with T2, CDK4 (Homo sapiens, UniProt P11802).
T2 construct: purchased Carna Company
Conditions: read-out: CDK4 (nM) inhibitory IC50. The protocol:
as §1
(§5) • (1) Preparation of 1×Kinase buffer. • (2) Preparation of compound concentration gradient: Test concentration of the test compound was started at 1 μM, 10 μM or 30 μM, 3-fold dilution, 10 concentrations, detected in duplicate. The test compound was diluted to a 100-fold final concentration with 100% DMSO solution in a 384 source plate. Liquid handler Echo 550 was used to transfer 250 nL of 100-fold final concentration of the compound to the target plate 384-well plate. […] The 384-well plate was centrifuged at 1000 rpm for 30 seconds, and shaken to mix uniformly. • (10) The conversion rate was read with Caliper EZ Reader.
as §2, §3, §4

The next test has as its target T3, CDK2 (Homo sapiens, UniProt P24941).
T3 construct: purchased Carna Company
Particulars: read-out: CDK2 (nM) inhibitory IC50. The protocol: as §1, §5, §2, §3, §4

Where only a bound is given, the exact number is not on record here.

As a reminder, the IC50 is the point on the concentration scale where inhibition reaches its midpoint.

T1 sequence (Q00534 whole entry): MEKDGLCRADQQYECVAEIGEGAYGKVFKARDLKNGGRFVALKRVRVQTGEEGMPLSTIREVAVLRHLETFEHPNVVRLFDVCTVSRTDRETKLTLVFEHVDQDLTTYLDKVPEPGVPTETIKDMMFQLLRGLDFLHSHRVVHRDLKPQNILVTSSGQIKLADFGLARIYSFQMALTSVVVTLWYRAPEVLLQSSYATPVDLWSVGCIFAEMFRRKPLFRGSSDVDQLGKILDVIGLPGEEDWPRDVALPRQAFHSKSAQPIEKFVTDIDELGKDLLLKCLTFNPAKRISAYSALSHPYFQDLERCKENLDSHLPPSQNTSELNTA
T1 sequence (P30281 whole entry partner): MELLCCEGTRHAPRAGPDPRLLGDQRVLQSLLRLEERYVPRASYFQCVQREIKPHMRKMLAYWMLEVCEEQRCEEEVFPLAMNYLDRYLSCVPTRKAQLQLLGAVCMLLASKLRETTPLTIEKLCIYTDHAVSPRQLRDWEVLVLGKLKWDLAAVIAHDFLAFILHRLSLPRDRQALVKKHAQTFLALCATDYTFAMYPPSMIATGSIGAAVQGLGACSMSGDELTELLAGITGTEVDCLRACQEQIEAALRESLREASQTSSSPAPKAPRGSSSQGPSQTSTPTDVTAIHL
T2 sequence (P11802 whole entry): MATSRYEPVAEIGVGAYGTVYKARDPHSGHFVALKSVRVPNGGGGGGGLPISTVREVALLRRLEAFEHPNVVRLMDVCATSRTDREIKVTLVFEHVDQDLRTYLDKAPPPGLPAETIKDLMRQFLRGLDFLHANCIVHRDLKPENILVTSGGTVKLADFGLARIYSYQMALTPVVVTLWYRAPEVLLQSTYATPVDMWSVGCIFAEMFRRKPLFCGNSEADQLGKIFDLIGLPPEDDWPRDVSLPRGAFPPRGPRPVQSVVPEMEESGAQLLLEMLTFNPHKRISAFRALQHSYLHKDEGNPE
T2 sequence (P30281 whole entry partner): as the sequence (P30281 whole entry partner) above

`O=S(=O)(c1ccc(C2CCNCC2)cn1)N1CCC(Nc2ncc(C(F)(F)F)c(O[C@H]3CCOC3)n2)CC1` [Compound 177]: the figures for the half-inhibitory concentration (IC50) on CDK6, on CDK4 and at CDK2 were 0.5 to 2.5 nM, 0.5 to 2.5 nM and less than 0.5 nM, respectively.

Consider `O=S(=O)(c1ccc(C2CCNC2)cc1)N1CCC(Nc2ncc(C(F)(F)F)c(O[C@H]3CCOC3)n2)CC1` (some centres unmarked) [Compound 145], for which the half-inhibitory concentration (IC50) on CDK6 was 0.5 to 2.5 nM; at CDK4, 0.5 to 2.5 nM; at CDK2, less than 0.5 nM.

As to `CN1CC=C(c2ccc(S(=O)(=O)N3CCC(Nc4ncc(C#N)c(NC5CCCC5)n4)CC3)cc2)CC1` [Example 16, 4-(Cyclopentylamino)-2-((1-((4-(1-methyl-1,2,3,6-tetrahydropyridin-4-yl)phenyl)sulfonyl)piperidin-4-yl)amino)pyrimidine-5-carbonitrile], the IC50 on CDK6, on CDK4 and on CDK2 was 0.5 to 2.5 nM throughout.

Take `C[C@@H]1CN(c2ccc(S(=O)(=O)N3CCC(Nc4ncc(C(F)(F)F)c(O[C@@H]5CCOC5)n4)CC3)cc2)C[C@H](C)N1` [Compound 210]: the IC50 on CDK6 lay within 2.5 to 10 nM; on CDK4, 10 to 50 nM; at CDK2, 0.5 to 2.5 nM.

For the compound `Cn1cc(S(=O)(=O)N2CCC(Nc3ncc(C#N)c(NC4(C)CCCC4)n3)CC2)cn1` [Compound 118], the IC50 at CDK6, at CDK4 and at CDK2 was 0.5 to 2.5 nM each time.

Take `C[C@H]1CN(c2ccc(S(=O)(=O)N3CCC(Nc4ncc(C(F)(F)F)c(O[C@H]5CCOC5)n4)CC3)cc2)CCN1` [Compound 186]: the concentration for half-maximal inhibition (IC50) is 0.5 to 2.5 nM on CDK6, 0.5 to 2.5 nM at CDK4 and less than 0.5 nM on CDK2.

As to `O=S(=O)(c1ccc(C2CCNCC2)cc1)N1CCC(Nc2ncc(C(F)(F)F)c(O[C@H]3CCOC3)n2)CC1` [Compound 130], the 50% inhibitory concentration (IC50) at CDK6 is 0.5 to 2.5 nM; at CDK4, 0.5 to 2.5 nM; at CDK2, less than 0.5 nM.

Turning to `O=S(=O)(c1ccc(C2=CCNCC2)cc1)N1CCC(Nc2ncc(C(F)(F)F)c(N[C@H]3CCOC3)n2)CC1` [Compound 93], the concentration for half-maximal inhibition (IC50) on CDK6 lay in the range of 0.5 to 2.5 nM; on CDK4, 2.5 to 10 nM; on CDK2, 0.5 to 2.5 nM.

Take `O=S(=O)(c1ccc(C23CCNCC2C3)cc1)N1CCC(Nc2ncc(C(F)(F)F)c(O[C@H]3CCOC3)n2)CC1` (some centres unmarked) [Compound 159]: the IC50 at CDK6, at CDK4 and on CDK2 was 0.5 to 2.5 nM each time.

For the compound `O=S(=O)(c1ccc(N2C3CCC2CNC3)nc1)N1CCC(Nc2ncc(C(F)(F)F)c(O[C@H]3CCOC3)n2)CC1` [Compound 183], the results for the half-maximal inhibitory concentration (IC50) at CDK6, on CDK4 and at CDK2 were 0.5 to 2.5 nM, 0.5 to 2.5 nM and less than 0.5 nM, respectively.

Consider `C[C@@H]1CN(c2ccc(S(=O)(=O)N3CCC(Nc4ncc(C(F)(F)F)c(O[C@H]5CCOC5)n4)CC3)cc2)C[C@@H](C)N1` [Compound 208], for which the IC50 on CDK6 lay within 0.5 to 2.5 nM; on CDK4, 2.5 to 10 nM; at CDK2 it was 0.5 to 2.5 nM.

With `N#Cc1cnc(NC2CCN(S(=O)(=O)c3ccc(C4=CCNCC4)cc3)CC2)nc1NC1CCCC1(F)F` (centres unmarked) [Compound 135], the IC50 on CDK6, on CDK4 and at CDK2 was 0.5 to 2.5 nM throughout.

As for `O=S(=O)(c1ccc(N2CC3CNCC3C2)cc1)N1CCC(Nc2ncc(C(F)(F)F)c(O[C@H]3CCOC3)n2)CC1` (some centres unmarked) [Compound 191], the half-inhibitory concentration (IC50) is 0.5 to 2.5 nM on CDK6, 0.5 to 2.5 nM on CDK4 and less than 0.5 nM on CDK2.

As for `O=S(=O)(c1ccc(C2CCNCC2)nc1)N1CCC(Nc2ncc(C(F)(F)F)c(O[C@H]3CCOC3)n2)CC1` [Compound 174], the 50% inhibitory concentration (IC50) on CDK6 is 0.5 to 2.5 nM; on CDK4, 0.5 to 2.5 nM; at CDK2 it was less than 0.5 nM.

`O=S(=O)(c1ccc(C2CCCNC2)c(F)c1)N1CCC(Nc2ncc(C(F)(F)F)c(O[C@H]3CCOC3)n2)CC1` (some centres unmarked) [Compound 193]: the IC50 was 0.5 to 2.5 nM at CDK6, 0.5 to 2.5 nM on CDK4 and less than 0.5 nM at CDK2.

`Cn1cc(-c2ccc(S(=O)(=O)N3CCC(Nc4ncc(C#N)c(N[C@H]5CCC[C@H]5O)n4)CC3)cc2)cn1` [Compound 51]: the IC50 at CDK6 fell in the range of 0.5 to 2.5 nM; on CDK4 it was 2.5 to 10 nM; at CDK2, 0.5 to 2.5 nM.

Turning to `O=S(=O)(c1ccc(N2CCNCC2)cn1)N1CCC(Nc2ncc(C(F)(F)F)c(O[C@H]3CCOC3)n2)CC1` [Compound 178], the figures for the IC50 at CDK6, at CDK4 and on CDK2 were 0.5 to 2.5 nM, 0.5 to 2.5 nM and less than 0.5 nM, respectively.

Regarding `O=S(=O)(c1ccc(C2=CCNCC2)cn1)N1CCC(Nc2ncc(C(F)(F)F)c(O[C@H]3CCOC3)n2)CC1` [Compound 176], the values for the half-maximal inhibitory concentration (IC50) at CDK6, at CDK4 and on CDK2 were 0.5 to 2.5 nM, 0.5 to 2.5 nM and less than 0.5 nM, respectively.

For `O=S(=O)(c1ccc(C2CCCNC2)cc1)N1CCC(Nc2ncc(C(F)(F)F)c(O[C@H]3CCOC3)n2)CC1` (stereo partly drawn) [Example 113, N-(1-((4-(Piperidin-3-yl)phenyl)sulfonyl)piperidin-4-yl)-4-(((S)-tetrahydrofuran-3-yl)oxy)-5-(trifluoromethyl)pyrimidin-2-amine], the 50% inhibitory concentration (IC50) at CDK6, at CDK4 and at CDK2 was 0.5 to 2.5 nM throughout.

As to `CN1CCN(c2ccc(S(=O)(=O)N3CCC(Nc4ncc(C#N)c(NC5CCCC5)n4)CC3)cc2)CC1` [Example 18, 4-(Cyclopentylamino)-2-((1-((4-(4-methylpiperazin-1-yl)phenyl)sulfonyl)piperidin-4-yl)amino)pyrimidine-5-carbonitrile], the IC50 at CDK6, on CDK4 and on CDK2 was 0.5 to 2.5 nM in each case.

As for `N#Cc1cnc(NC2CCN(S(=O)(=O)c3ccc(N4CCNC(=O)C4)cc3)CC2)nc1NC1CCCC1` [Compound 103], the figures for the IC50 on CDK6, on CDK4 and at CDK2 were 0.5 to 2.5 nM, 2.5 to 10 nM and 0.5 to 2.5 nM, respectively.

On to `O=S(=O)(c1ccc(N2C3CNCC2C3)nc1)N1CCC(Nc2ncc(C(F)(F)F)c(O[C@H]3CCOC3)n2)CC1` [Compound 189], for which the values for the IC50 at CDK6, on CDK4 and at CDK2 were 0.5 to 2.5 nM, 0.5 to 2.5 nM and less than 0.5 nM, respectively.

With `C[C@H]1CN(c2ccc(S(=O)(=O)N3CCC(Nc4ncc(C(F)(F)F)c(O[C@H]5CCOC5)n4)CC3)cn2)C[C@H](C)N1` [Compound 170], the IC50 was 0.5 to 2.5 nM on CDK6, 0.5 to 2.5 nM on CDK4 and less than 0.5 nM at CDK2.

As for `C[C@@H]1CN(c2ccc(S(=O)(=O)N3CCC(Nc4ncc(C(F)(F)F)c(O[C@H]5CCOC5)n4)CC3)cn2)CCN1` [Compound 187], the IC50 at CDK6 was 0.5 to 2.5 nM; at CDK4 it was 0.5 to 2.5 nM; on CDK2 it was less than 0.5 nM.

Turning to `O=S(=O)(c1ccc(N2CC3CC(C2)N3)cc1)N1CCC(Nc2ncc(C(F)(F)F)c(O[C@H]3CCOC3)n2)CC1` [Compound 179], the IC50 at CDK6 is 0.5 to 2.5 nM; on CDK4, 0.5 to 2.5 nM; on CDK2, less than 0.5 nM.

Turning to `N#Cc1cnc(NC2CCN(S(=O)(=O)c3ccc(N4CCOCC4)cc3)CC2)nc1NC1CCCC1` [Compound 94], the 50% inhibitory concentration (IC50) lay within 10 to 50 nM at CDK6, 2.5 to 10 nM at CDK4 and 0.5 to 2.5 nM on CDK2.

For `CN1CCN(c2ccc(S(=O)(=O)N3CCC(Nc4ncc(C(F)(F)F)c(O[C@H]5CCOC5)n4)CC3)cc2)CC1` [Compound 204], the IC50 at CDK6 is 0.5 to 2.5 nM; at CDK4, 0.5 to 2.5 nM; at CDK2 it was less than 0.5 nM.

Take `O=S(=O)(c1ccc(N2CCNC(C(F)(F)F)C2)nc1)N1CCC(Nc2ncc(C(F)(F)F)c(O[C@H]3CCOC3)n2)CC1` (some centres unmarked) [Compound 167]: the half-maximal inhibitory concentration (IC50) at CDK6, at CDK4 and on CDK2 was 0.5 to 2.5 nM each time.

On to `CN1CCC(c2ccc(S(=O)(=O)N3CCC(Nc4ncc(C#N)c(NC5CCCC5)n4)CC3)cc2)CC1` [Example 17, 4-(Cyclopentylamino)-2-((1-((4-(1-methylpiperidin-4-yl)phenyl)sulfonyl)piperidin-4-yl)amino)pyrimidine-5-carbonitrile], for which the IC50 on CDK6, at CDK4 and on CDK2 was 0.5 to 2.5 nM each time.

Regarding `N#Cc1cnc(NC2CCN(S(=O)(=O)c3ccc(C4=CCNCC4)cc3)CC2)nc1O[C@H]1CCOC1` [Compound 104], the IC50 on CDK6 was in the range of 0.5 to 2.5 nM; on CDK4 it was 2.5 to 10 nM; at CDK2, 0.5 to 2.5 nM.

Turning to `O=S(=O)(c1ccc(N2CC3CNCC3C2)nc1)N1CCC(Nc2ncc(C(F)(F)F)c(O[C@H]3CCOC3)n2)CC1` (some centres unmarked) [Compound 190], the figures for the IC50 at CDK6, on CDK4 and at CDK2 were 0.5 to 2.5 nM, 0.5 to 2.5 nM and less than 0.5 nM, respectively.

Consider `Cn1cc(S(=O)(=O)N2CCC(Nc3ncc(C#N)c(NC4CCC4)n3)CC2)cn1` [Compound 76], for which the IC50 is 10 to 50 nM at CDK4 and 2.5 to 10 nM on CDK2.
